# Biological target: Prostaglandin E2 receptor EP2 subtype (Homo sapiens) (UniProt P43116)
# Assay: Antagonist activity at EP2 receptor (unknown origin) expressed in rat C6 cells assessed as inhibition of PGE2-induced response
# Type: cell-based
# Chain of Prostaglandin E2 receptor EP2 subtype (Homo sapiens) (P43116 whole entry): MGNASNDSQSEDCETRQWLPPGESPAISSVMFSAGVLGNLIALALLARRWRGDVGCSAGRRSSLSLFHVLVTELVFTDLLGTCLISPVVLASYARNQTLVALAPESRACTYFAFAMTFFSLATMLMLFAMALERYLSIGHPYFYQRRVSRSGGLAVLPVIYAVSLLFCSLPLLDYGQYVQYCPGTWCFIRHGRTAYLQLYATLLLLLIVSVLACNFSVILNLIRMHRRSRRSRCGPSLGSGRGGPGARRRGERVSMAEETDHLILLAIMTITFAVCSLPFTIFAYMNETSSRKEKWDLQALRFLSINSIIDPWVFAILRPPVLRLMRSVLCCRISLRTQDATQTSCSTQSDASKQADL
row,SMILES,Kb [nM]
1,CCN(CC)c1ccc(C(=O)NCCn2c(C)cc3ccccc32)cc1OC,61.2
2,Cc1cc2ccccc2n1CCNC(=O)C1CCC(c2ncccn2)CC1 (configuration not stated),380
3,Cc1cc2ccccc2n1CCNC(=O)c1ccc2[nH]c(=S)[nH]c(=O)c2c1,84.1
4,Cc1cc2ccccc2n1CCNC(=O)c1cnc2ccc(F)cc2c1O,175
5,Cc1cc2cc(F)ccc2n1CCNC(=O)c1ccc(N2CCOCC2)cc1,14.9
6,Cc1cc2ccccc2n1CCNC(=O)c1ccc(C#N)cc1F,280
7,CC(=O)Nc1ccc(C(=O)NCCc2c(C)[nH]c3ccccc23)cc1,138
8,CCN(CC)C(=O)c1ccc(C(=O)NCCc2c(C)[nH]c3ccccc23)cc1,> 1000
9,CCNc1ccc(C(=O)NCCn2c(C)cc3ccccc32)cc1C(F)(F)F,20.2
10,Cc1cc2ccccc2n1CCNC(=O)c1ccc2[nH]nnc2c1,87.5
11,Cc1cc2ccccc2n1CCNC(=O)c1cnc(N2CCOCC2)nc1,76.5
12,CCN(CC)c1ccc(C(=O)NCCn2c(C)cc3ccccc32)cc1C(F)(F)F,310
13,Cc1cc2ccccc2n1CCNC(=O)c1cccnc1N,520
14,Cc1cc2ccccc2n1CCNC(=O)c1cnc(N)nc1,> 1000
15,CCN(CC)c1ccc(C(=O)NCCn2c(C(F)(F)F)cc3ccccc32)cc1,150
16,Cc1cc2ccccc2n1CCNC(=O)c1ccc(C#N)c(F)c1,140
17,Cc1cc2ccccc2n1CCNC(=O)c1ccc(N(C)C)c(F)c1,18.1
18,CCN(CC)c1ccc(C(=O)NCCn2c(C)nc3ccccc32)cc1,190
19,COc1cc(C(=O)NCCn2c(C)cc3ccccc32)cc(OC)c1OC,> 1000
20,COc1ccc(C(=O)NCCn2c(C)cc3ccccc32)cc1F,86.8
21,CC1=Nc2ccccc2C1CCNC(=O)c1cnc(N2CCOCC2)nc1 (configuration not stated),280
22,CCN(CC)c1ccc(C(=O)OCCn2c(C)cc3ccccc32)cc1,> 1000
23,O=C(NCCn1c(C(F)(F)F)cc2ccccc21)c1ccc(N2CCOCC2)cc1,120
24,Cc1[nH]c2ccccc2c1CCNC(=O)c1ccc(N2CCOCC2)c(F)c1,66
25,CCNc1ncc(C(=O)NCCC2C(C)=Nc3ccccc32)cn1 (configuration not stated),155

# Continued, values first:
row,Kb [nM],SMILES
1,22.3,COc1ccc(C(=O)NCCn2c(C)cc3ccccc32)cc1OC
2,1220,Cc1cc2ccccc2n1CCNC(=O)c1ccc(CCN)cc1
3,32.2,Cc1cc2ccccc2n1CCNC(=O)c1ccc(-n2nn[nH]c2=S)cc1
4,95,Cc1cc2ccccc2n1CCNC(=O)c1ccc(C2CCCN(C(=O)OC(C)(C)C)C2)cc1 (configuration not stated)
5,97,CC(=O)Nc1ccc(C(=O)NCCn2c(C)cc3ccccc32)cc1
6,> 1000,CCN(CC)c1ccc(C(=O)NCCCn2c(C)cc3ccccc32)cc1
7,> 1000,Cc1cc2ccccc2n1CCNC(=O)c1ccc(C(=O)N(C)C)cc1
8,> 1000,Cc1cc2ccccc2n1CCNC(=O)c1ccc(O)cc1
9,148,Cc1cc2ccccc2n1CCNC(=O)c1ccc(N2CCCN(C)CC2)cc1
10,75.6,COc1ccc(C(=O)NCCn2c(C)cc3ccccc32)cc1
11,500,CCOC(=O)C1CCN(c2ccc(C(=O)NCCn3c(C)cc4ccccc43)cc2)CC1
12,50.2,CC(=O)N1CCN(c2ccc(C(=O)NCCn3c(C)cc4ccccc43)cc2)CC1
13,150,CC(=O)Oc1ccc(C(=O)NCCn2c(C)cc3ccccc32)cc1
14,800,CCN(CC)C(=O)c1ccc(C(=O)NCCn2c(C)cc3ccccc32)cc1
15,84,Cc1cc2ccccc2n1CCNC(=O)c1ccc(CNC(=O)OC(C)(C)C)cc1
16,> 1000,Cc1cc2ccccc2n1CCNC(=O)c1ccc(NC(=N)N)cc1
17,64,Cc1cc2ccccc2n1CCNC(=O)c1ccc(N2CCN(C)CC2)cc1
18,> 1000,Cc1cc2ccccc2n1CCNC(=O)c1ccc(CN2CCN(C)CC2)cc1
19,120,Cc1cc2ccccc2n1CCNC(=O)c1ccc(C2CCCCC2)cc1
20,30.3,Cc1cc2ccccc2n1CCNC(=O)c1ccc(N2CCC(C)CC2)cc1
21,770,Cc1cc2ccccc2n1CCNC(=O)c1cccc(N2CCN(C)CC2)c1
22,210,Cc1cc2ccccc2n1CCNC(=O)c1ccc(N)cc1

# — ChEMBL document CHEMBL3286257, “Development of second generation EP2 antagonists with high selectivity” (Eur J Med Chem, 2014)
